Assay results taken from PMC5433425 (PeerJ, 2017).
“And” between values parts separate entries of the source, which are not always exact repeats. Equal entries are not always repeated. Where two headings read alike, the source gives them in different places. Peptide text beside a SMILES is read from it. * marks the point of attachment. βNA = c1ccc2cc(N*)ccc2c1

Key:
[1] = tested on: E. coli AG100; assay: EtBr efflux by real-time fluorometry; conditions: 80 µM
[2] = tested on: E. coli AG100; assay: Checkerboard synergy assay (MIC of antibiotics/EtBr with efflux inhibitor); format: cell-based, Escherichia coli; conditions: Escherichia coli
Procedure: (§1) The assays were performed in triplicate and the MIC value was given as result of at least two concordant values.

[3] = tested on: E. coli AG100tet; assay: EtBr accumulation by real-time fluorometry; conditions: EtBr 2 µg/ml + inhibitor 80 µM
[4] = tested on: E. coli AG100tet (AcrAB overexpressing); assay: MIC, broth microdilution; format: cell-based, Escherichia coli; conditions: Escherichia coli
[5] = tested on: E. coli AG100A (AcrAB pump-deficient); assay: MIC, broth microdilution; format: cell-based, Escherichia coli; conditions: Escherichia coli
[6] = tested on: E. coli AG100tet; assay: microbe, parasite or virus in culture; format: cell-based, Escherichia coli; conditions: for MIC: Escherichia coli, AG100TET
Procedure: as §1

[7] = tested on: E. coli AG100A; assay: microbe, parasite or virus in culture; format: cell-based, Escherichia coli; conditions: for MIC: Escherichia coli, AG100A

SMILES: NC(N)=NCCC[C@H](NC(=O)[C@@H](N)Cc1ccccc1)C(=O)Nc1ccc2ccccc2c1 [PAβN] (H-Phe-Arg-βNA)
- EtBr fluorescence (Channel Cycling A.530/585hp) ([1]; cycle 43, + glucose): 1.125
- EtBr fluorescence (Channel Cycling A.530/585hp) ([1]; cycle 43, without glucose): 1.031
- EtBr fluorescence (Channel Cycling A.530/585hp) ([1]; cycle 44, + glucose): 1.108
- EtBr fluorescence (Channel Cycling A.530/585hp) ([1]; cycle 44, without glucose): 1.002
- EtBr fluorescence (Channel Cycling A.530/585hp) ([1]; cycle 45, without glucose): 0.9943
- EtBr fluorescence (Channel Cycling A.530/585hp) ([1]; cycle 46, without glucose): 1.025
- EtBr fluorescence (Channel Cycling A.530/585hp) ([1]; cycle 47, without glucose): 1.03
- EtBr fluorescence (Channel Cycling A.530/585hp) ([1]; cycle 48, without glucose): 1.056
- EtBr fluorescence (Channel Cycling A.530/585hp) ([1]; cycle 49, without glucose): 1.07
- EtBr fluorescence (Channel Cycling A.530/585hp) ([1]; cycle 50, without glucose): 1.062
- EtBr fluorescence (Channel Cycling A.530/585hp) ([1]; cycle 51, without glucose): 1.026
- EtBr fluorescence (Channel Cycling A.530/585hp) ([1]; cycle 52, without glucose): 1.029
- EtBr fluorescence (Channel Cycling A.530/585hp) ([1]; cycle 53, without glucose): 1.04
- EtBr fluorescence (Channel Cycling A.530/585hp) ([1]; cycle 54, without glucose): 1.019
- EtBr fluorescence (Channel Cycling A.530/585hp) ([1]; cycle 55, without glucose): 0.9589
- EtBr fluorescence (Channel Cycling A.530/585hp) ([1]; cycle 56, without glucose): 0.9927
- EtBr fluorescence (Channel Cycling A.530/585hp) ([1]; cycle 57, without glucose): 1.017
- EtBr fluorescence (Channel Cycling A.530/585hp) ([1]; cycle 58, without glucose): 0.9905
- EtBr fluorescence (Channel Cycling A.530/585hp) ([1]; cycle 59, without glucose): 1.041
- EtBr fluorescence (Channel Cycling A.530/585hp) ([1]; cycle 60, without glucose): 1.02
- EtBr fluorescence (Channel Cycling A.530/585hp) ([1]; cycle 61, without glucose): 1.0374
- MIC ([2]; AG100, AG100, inhibitor 40 μM, read-out: MIC of OXA in presence of the efflux inhibitor): 64 µg/mL
- MIC ([2]; AG100, AG100, inhibitor 80 μM, read-out: MIC of OXA in presence of the efflux inhibitor): 64 µg/mL
- MIC ([2]; AG100, AG100, inhibitor 160 μM, read-out: MIC of OXA in presence of the efflux inhibitor): 64 µg/mL
- MIC ([2]; AG100, read-out: MIC of EtBr in presence of the efflux inhibitor, AG100, inhibitor 40 μM): 100 µg/mL
- MIC ([2]; AG100, read-out: MIC of EtBr in presence of the efflux inhibitor, AG100, inhibitor 80 μM): 100 µg/mL
- MIC ([2]; AG100, read-out: MIC of EtBr in presence of the efflux inhibitor, AG100, inhibitor 160 μM): 100 µg/mL
- MIC ([2]; AG100, read-out: MIC of OFX in presence of the efflux inhibitor, AG100, inhibitor 40 μM): 0.06 µg/mL
- MIC ([2]; AG100, read-out: MIC of OFX in presence of the efflux inhibitor, AG100, inhibitor 80 μM): 0.06 µg/mL
- MIC ([2]; AG100, read-out: MIC of OFX in presence of the efflux inhibitor, AG100, inhibitor 160 μM): 0.06 µg/mL
- MIC ([2]; AG100, read-out: MIC of TET in presence of the efflux inhibitor, AG100, inhibitor 40 μM): 2 µg/mL
- MIC ([2]; AG100, read-out: MIC of TET in presence of the efflux inhibitor, AG100, inhibitor 80 μM): 1 µg/mL
- MIC ([2]; AG100, read-out: MIC of TET in presence of the efflux inhibitor, AG100, inhibitor 160 μM): 0.06 µg/mL
- EtBr fluorescence ([3]; cycle 1): 11.1278
- EtBr fluorescence ([3]; cycle 2): 12.695
- EtBr fluorescence ([3]; cycle 3): 14.0098
- EtBr fluorescence ([3]; cycle 4): 14.9916
- EtBr fluorescence ([3]; cycle 5): 15.9316
- EtBr fluorescence ([3]; cycle 6): 16.6928
- EtBr fluorescence ([3]; cycle 7): 17.1135
- EtBr fluorescence ([3]; cycle 8): 17.7313
- EtBr fluorescence ([3]; cycle 9): 18.0085
- EtBr fluorescence ([3]; cycle 10): 18.4427
- EtBr fluorescence ([3]; cycle 11): 18.7463
- EtBr fluorescence ([3]; cycle 12): 18.8264
- EtBr fluorescence ([3]; cycle 13): 19.2404
- EtBr fluorescence ([3]; cycle 14): 19.2594
- EtBr fluorescence ([3]; cycle 15): 19.2787
- EtBr fluorescence ([3]; cycle 16): 19.7369
- EtBr fluorescence ([3]; cycle 17): 19.738
- EtBr fluorescence ([3]; cycle 18): 20.2008
- EtBr fluorescence ([3]; cycle 19): 19.7958
- EtBr fluorescence ([3]; cycle 20): 20.1672
- EtBr fluorescence ([3]; cycle 21): 20.6387
- EtBr fluorescence ([3]; cycle 22): 20.6639
- EtBr fluorescence ([3]; cycle 23): 21.3214
- EtBr fluorescence ([3]; cycle 24): 21.3175
- EtBr fluorescence ([3]; cycle 25): 21.5239
- EtBr fluorescence ([3]; cycle 26): 21.9663
- EtBr fluorescence ([3]; cycle 27): 22.3215
- EtBr fluorescence ([3]; cycle 28): 22.6925
- EtBr fluorescence ([3]; cycle 29): 23.1641
- EtBr fluorescence ([3]; cycle 30): 23.4062
- MIC [4]: > 200 µg/mL and > 385 µM
- MIC [5]: 50 µg/mL and 96.3 µM
- decrease in EtBr MIC ([6]; AG100tet (AcrAB-overexpressing strain)): 128 fold
- MIC ([6]; read-out: MIC of EtBr in presence of the efflux inhibitor, AG100tet, inhibitor 40 μM): 256 µg/mL
- MIC ([6]; read-out: MIC of EtBr in presence of the efflux inhibitor, AG100tet, inhibitor 80 μM): 128 µg/mL
- MIC ([6]; read-out: MIC of EtBr in presence of the efflux inhibitor, AG100tet, inhibitor 160 μM): 4 µg/mL
- MIC ([6]; read-out: MIC of OFX in presence of the efflux inhibitor, AG100tet, inhibitor 40 μM): 0.06 µg/mL
- MIC ([6]; read-out: MIC of OFX in presence of the efflux inhibitor, AG100tet, inhibitor 80 μM): 0.03 µg/mL
- MIC ([6]; read-out: MIC of OFX in presence of the efflux inhibitor, AG100tet, inhibitor 160 μM): 0.03 µg/mL
- MIC ([6]; read-out: MIC of OXA in presence of the efflux inhibitor, AG100tet, inhibitor 40 μM): 256 µg/mL
- MIC ([6]; read-out: MIC of OXA in presence of the efflux inhibitor, AG100tet, inhibitor 80 μM): 256 µg/mL
- MIC ([6]; read-out: MIC of OXA in presence of the efflux inhibitor, AG100tet, inhibitor 160 μM): 64 µg/mL
- MIC ([6]; read-out: MIC of TET in presence of the efflux inhibitor, AG100tet, inhibitor 40 μM): 8 µg/mL
- MIC ([6]; read-out: MIC of TET in presence of the efflux inhibitor, AG100tet, inhibitor 80 μM): 4 µg/mL
- MIC ([6]; read-out: MIC of TET in presence of the efflux inhibitor, AG100tet, inhibitor 160 μM): 2 µg/mL
- effect on OFX and EtBr MICs ([7]; AG100A (pump-deficient strain)): no effect
- reduction in OXA MIC ([7]; AG100A (pump-deficient strain)): 4 fold
- reduction in TET MIC ([7]; AG100A (pump-deficient strain)): 16 fold
- MIC ([7]; read-out: MIC of EtBr in presence of the efflux inhibitor): 3.12 µg/mL
- MIC ([7]; read-out: MIC of OFX in presence of the efflux inhibitor): 0.03 µg/mL
- MIC ([7]; read-out: MIC of OXA in presence of the efflux inhibitor): 0.25 µg/mL
- MIC ([7]; read-out: MIC of TET in presence of the efflux inhibitor): 0.03 µg/mL
